Experimental data reported in patent US20110294828A1, “PROCESS FOR PREPARING A POLYMORPH OF THE CHOLINE SALT OF A PYRIMIDIN-5-YL ACETIC ACID DERIVATIVE” (BOEHRINGER INGELHEIM INTERNATIONAL GMBH, priority 2009, published 2011).
Structures can show the parent of a compound that is named as a salt.

Legend:
[1] = Dynamic vapor sorption/desorption (DVS); assay type: physicochemical; settings: up to 75% relative humidity at 25° C.
Description: Vapor sorption/desorption was carried out using Surface Measurement Systems DVS-HT. Samples were placed into a foil insert placed on a sample pan. […] The equilibrium point of each step was reached when 0.002% of weight change was reached.

[2] = target: T1, CRTH2 (Homo sapiens, UniProt Q9Y5Y4); test: CRTH2 antagonistic activity (statement only, no method given)
T1 sequence (Q9Y5Y4 1-395): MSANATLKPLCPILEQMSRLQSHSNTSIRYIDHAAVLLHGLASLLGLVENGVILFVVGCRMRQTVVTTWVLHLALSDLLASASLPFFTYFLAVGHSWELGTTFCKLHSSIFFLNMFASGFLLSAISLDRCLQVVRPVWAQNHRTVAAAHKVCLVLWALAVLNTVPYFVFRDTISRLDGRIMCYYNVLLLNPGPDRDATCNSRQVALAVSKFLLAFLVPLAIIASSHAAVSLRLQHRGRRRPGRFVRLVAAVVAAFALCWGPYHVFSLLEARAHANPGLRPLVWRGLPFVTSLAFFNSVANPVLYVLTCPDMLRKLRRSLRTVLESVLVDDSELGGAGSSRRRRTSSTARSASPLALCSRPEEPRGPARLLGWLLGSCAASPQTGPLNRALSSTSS

[3] = Particle size distribution (Sympatec HELOS, dry powder dispersion); assay type: physicochemical; parameters: particle size D90: dose or concentration left out as unconfirmed; settings: for Particle size distribution (PSD) % <10 μM / Particle size distribution (PSD) % <50 μM / particle size D90: crystalline product as isolated, no milling; for particle size D90: the values are: particle size D90
Description: Determination of particle size distribution was carried out using a Sympatec HELOS System H1588 with a RODOS/M Dry Powder Dispersion System.

hygroscopicity (DVS isotherm, FIG. 3) [1]: non-hygroscopic
CRTH2 antagonistic activity [2]: excellent
Particle size distribution (PSD) % <10 μM ([3]; listed as Comp. Ex. 2): 11.57
Particle size distribution (PSD) % <50 μM ([3]; listed as Comp. Ex. 2): 60.13
particle size D90 ([3]; listed as Comp. Ex. 2): 120 µm
Particle size distribution (PSD) % <10 μM ([3]; listed as Comp. Ex. 3): 6.87
Particle size distribution (PSD) % <50 μM ([3]; listed as Comp. Ex. 3): 57.62
particle size D90 ([3]; listed as Comp. Ex. 3): 181 µm
Particle size distribution (PSD) % <10 μM ([3]; listed as Comp. Ex. 4): 3.01
Particle size distribution (PSD) % <50 μM ([3]; listed as Comp. Ex. 4): 13.62
particle size D90 ([3]; listed as Comp. Ex. 4): 38 µm
Particle size distribution (PSD) % <10 μM ([3]; listed as Ex. 1): 5.13
Particle size distribution (PSD) % <50 μM ([3]; listed as Ex. 1): 16.67
particle size D90 ([3]; listed as Ex. 1): 35.5 µm
diameter of 90% of the choline salt particles ([3]; seeding step with seeding particles of which 90% have a diameter of less than 50 μm): less than 100 μm
SMILES: CN(C)c1nc(Cc2ccc(NC(=O)c3ccc(C(F)(F)F)cc3)cc2)nc(N(C)C)c1CC(=O)O [choline salt of [4,6-bis(dimethylamino)-2-(4-{[4-(trifluoromethyl)benzoyl]amino}benzyl)pyrimidin-5-yl]acetic acid]
